Drawing on patent US10188634B2, “3-(3H-imidazo[4,5-C]pyridin-2-yl)-1 H-pyrazolo[4,3-B]pyridines and therapeutic uses thereof” (Samumed, LLC, priority 2015, dated 2019), this text covers inhibition and EC50 for 14 compounds.

Common to all, as to assay type: cell-based
One assay relates to SW480 colon cancer cells. The assay is described as follows: Cell viability assay (CellTiter-Blue) in SW480 colon cancer cells. The settings on record: Homo sapiens, 96 h; for inhibition at 10 µM: four days, CellTiter-Blue, read-out: percent inhibition at 10 μM (given for EC50 of >10 μM); for EC50: four days incubation, CellTiter-Blue cell viability. The gist of the method:
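About 2×10^3 SW480 colon cancer cells per well were exposed to compound (8-point 1:3 dilutions, 10 μM to 0.004 μM) for four days at 37 °C. Viability was read by CellTiter-Blue resazurin reduction (~3 h, Ex 560/Em 590). EC50 from nonlinear regression; above 10 μM, % inhibition at 10 μM is reported.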

Assay [1] deals with LL29 cells (primary human fibroblasts derived from IPF patients) treated with TGF-β1, α-smooth muscle actin. In words: Inhibition of the fibrotic process: αSMA staining in TGF-β1 treated primary human fibroblasts from IPF patients (LL29 cells). The conditions noted are these: Fibroblast, 96 h; for EC50: LL29 cells treated with TGF-β1 (20 ng/mL), 4 days; for inhibition at 10 µM: LL29 cells treated with TGF-β1, 4 days, read-out: percent inhibition in brackets (given for EC50 >10 μM).

The next assay has as its system IL-6 in THP-1 cells. The assay is described as follows: Inhibition of IL-6 in LPS-stimulated THP-1 human monocyte cells (HTRF). The conditions noted are these: IL-6 HTRF; for EC50: 500 ng/mL LPS, 22 hours; for inhibition at 10 µM: LPS, read-out: percent inhibition in brackets (given for EC50 >10 μM). The method, boiled down:
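THP-1 cells, serum-reduced (1% FBS) for 24 h, were exposed to compound (1:3, 10-point series from 10 μM; 0.1% DMSO) for 2 h, then 500 ng/mL LPS for 22 h at 37° C. Secreted IL-6 measured by HTRF (665/620 ratio), normalised to DMSO; EC50 by four-parameter fit, else % inhibition at 10 μM.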

Turning to `Fc1cccc(-c2cncc3[nH]c(-c4n[nH]c5ccc(C6=CCNCC6)nc45)nc23)c1` [Compound 478, 3-(7-(3-Fluorophenyl)-3H-imidazo[4,5-c]pyridin-2-yl)-5-(1,2,3,6-tetrahydropyridin-4-yl)-1H-pyrazolo[4,3-b]pyridine], the values for the inhibition at 10 µM in the assay on SW480 colon cancer cells and in the assay with IL-6 in THP-1 cells were 0% and 18.6%, respectively. Besides, the EC50 (commonly the concentration needed to bring the measured effect to its halfway point) in the assay with SW480 colon cancer cells is over 10 µM; in assay [1] it was 4.99 µM; with IL-6 in THP-1 cells it was over 10 µM.

Regarding `CN(C)CC(=O)Nc1cncc(-c2ccc3[nH]nc(-c4nc5c(-c6cccc(F)c6)cncc5[nH]4)c3n2)c1` [Compound 925, 2-(Dimethylamino)-N-(5-(3-(7-(3-fluorophenyl)-3H-imidazo[4,5-c]pyridin-2-yl)-1H-pyrazolo[4,3-b]pyridin-5-yl)pyridin-3-yl)acetamide], the results for the inhibition at 10 µM (in the assay with SW480 colon cancer cells; in assay [1]; in the assay with IL-6 in THP-1 cells) were 16.1%, 8.3% and 20.1%, respectively. The EC50 (in the assay with SW480 colon cancer cells; in assay [1]; in the assay with IL-6 in THP-1 cells) was over 10 µM each time.

Turning to `c1cncc(-c2ccc3[nH]nc(-c4nc5c(-c6cccnc6)cncc5[nH]4)c3n2)c1` [Compound 88, 5-(Pyridin-3-yl)-3-(7-(pyridin-3-yl)-3H-imidazo[4,5-c]pyridin-2-yl)-1H-pyrazolo[4,3-b]pyridine], the inhibition (in general, the percentage by which the read-out fell short of the control) at 10 µM in the assay with SW480 colon cancer cells is 7.1%; with IL-6 in THP-1 cells, 13.9%. For the same compound, the half-maximal effective concentration (EC50) is over 10 µM in the assay on SW480 colon cancer cells, 4.96 µM in assay [1] and over 10 µM with IL-6 in THP-1 cells.

For the compound `Nc1cncc(-c2ccc3[nH]nc(-c4nc5c(-c6ccccc6F)cncc5[nH]4)c3n2)c1` [Compound 59, 5-(3-(7-(2-Fluorophenyl)-3H-imidazo[4,5-c]pyridin-2-yl)-1H-pyrazolo[4,3-b]pyridin-5-yl)pyridin-3-amine], the inhibition at 10 µM in the assay with SW480 colon cancer cells is 0%. Further, the EC50 is over 10 µM in the assay with SW480 colon cancer cells, 3.4 µM in assay [1] and 0.094 µM with IL-6 in THP-1 cells.

Turning to `CCCCC(=O)Nc1cncc(-c2ccc3[nH]nc(-c4nc5c(-c6ccccn6)cncc5[nH]4)c3n2)c1` [Compound 159, N-(5-(3-(7-(Pyridin-2-yl)-3H-imidazo[4,5-c]pyridin-2-yl)-1H-pyrazolo[4,3-b]pyridin-5-yl)pyridin-3-yl)pentanamide], the inhibition at 10 µM was 9% in the assay with SW480 colon cancer cells, 0.4% in assay [1] and 28.2% with IL-6 in THP-1 cells. For the same compound, the EC50 (in the assay on SW480 colon cancer cells; in assay [1]; with IL-6 in THP-1 cells) was over 10 µM each time.

In the case of `Cc1cn(-c2cncc3[nH]c(-c4n[nH]c5ccc(-c6cncc(CN7CCCC7)c6)nc45)nc23)cn1` [Compound 210, 3-(7-(4-Methyl-1H-imidazol-1-yl)-3H-imidazo[4,5-c]pyridin-2-yl)-5-(5-(pyrrolidin-1-ylmethyl)pyridin-3-yl)-1H-pyrazolo[4,3-b]pyridine], the values for the inhibition at 10 µM (with SW480 colon cancer cells; in assay [1]; in the assay on IL-6 in THP-1 cells) were 4%, 0% and 13%, respectively. Also, the EC50 (in the assay on SW480 colon cancer cells; in assay [1]; with IL-6 in THP-1 cells) was over 10 µM each time.

As for `c1cncc(-c2cncc3[nH]c(-c4n[nH]c5ccc(-c6cncc(OC7CCCCC7)c6)nc45)nc23)c1` [Compound 531, 5-(5-(Cyclohexyloxy)pyridin-3-yl)-3-(7-(pyridin-3-yl)-3H-imidazo[4,5-c]pyridin-2-yl)-1H-pyrazolo[4,3-b]pyridine], the inhibition at 10 µM in the assay with SW480 colon cancer cells was 15.5%. In addition, the EC50 is over 10 µM with SW480 colon cancer cells, 3.2 µM in assay [1] and 0.371 µM in the assay on IL-6 in THP-1 cells.

As for `Fc1cccc(-c2cncc3[nH]c(-c4n[nH]c5ccc(-c6cn[nH]c6)nc45)nc23)c1` [Compound 479, 3-(7-(3-Fluorophenyl)-3H-imidazo[4,5-c]pyridin-2-yl)-5-(1H-pyrazol-4-yl)-1H-pyrazolo[4,3-b]pyridine], the inhibition at 10 µM came out at 5.5% in the assay with SW480 colon cancer cells, 36.2% in assay [1] and 15.7% with IL-6 in THP-1 cells. Besides, the EC50 (in the assay with SW480 colon cancer cells; in assay [1]; with IL-6 in THP-1 cells) was over 10 µM throughout.

As for `Cc1ncc(-c2ccc3[nH]nc(-c4nc5c(-c6cccc(F)c6)cncc5[nH]4)c3n2)s1` [Compound 1081, 5-(3-(7-(3-Fluorophenyl)-3H-imidazo[4,5-c]pyridin-2-yl)-1H-pyrazolo[4,3-b]pyridin-5-yl)-2-methylthiazole], the results for the inhibition at 10 µM in the assay on SW480 colon cancer cells and with IL-6 in THP-1 cells were 23.5% and 7.7%, respectively. The EC50 in the assay with SW480 colon cancer cells was over 10 µM; in assay [1], 1.96 µM; with IL-6 in THP-1 cells, over 10 µM.

For `CCCCC(=O)Nc1cncc(-c2ccc3[nH]nc(-c4nc5c(-c6cc(F)cc(NCCN(C)C)c6)cncc5[nH]4)c3n2)c1` [Compound 439, N-(5-(3-(7-(3-((2-(Dimethylamino)ethyl)amino)-5-fluorophenyl)-3H-imidazo[4,5-c]pyridin-2-yl)-1H-pyrazolo[4,3-b]pyridin-5-yl)pyridin-3-yl)pentanamide], the inhibition at 10 µM in the assay on SW480 colon cancer cells came out at 1.3%; in the assay with IL-6 in THP-1 cells it was 31.5%. In addition, the values for the EC50 (in the assay on SW480 colon cancer cells; in assay [1]; in the assay with IL-6 in THP-1 cells) were over 10 µM, 0.248 µM and over 10 µM, respectively.

As to `c1cc(-c2cncc3[nH]c(-c4n[nH]c5ccc(-c6cncc(OC7CCNCC7)c6)nc45)nc23)ccn1` [Compound 548, 5-(5-(Piperidin-4-yloxy)pyridin-3-yl)-3-(7-(pyridin-4-yl)-3H-imidazo[4,5-c]pyridin-2-yl)-1H-pyrazolo[4,3-b]pyridine], the inhibition at 10 µM was 10.3% with SW480 colon cancer cells and 22.6% in the assay on IL-6 in THP-1 cells. In addition, the values for the EC50 (with SW480 colon cancer cells; in assay [1]; in the assay on IL-6 in THP-1 cells) were over 10 µM, 2.47 µM and over 10 µM, respectively.

As to `Oc1cncc(-c2ccc3[nH]nc(-c4nc5c(-c6cccc(F)c6)cncc5[nH]4)c3n2)c1` [Compound 489, 5-(3-(7-(3-Fluorophenyl)-3H-imidazo[4,5-c]pyridin-2-yl)-1H-pyrazolo[4,3-b]pyridin-5-yl)pyridin-3-ol], the inhibition at 10 µM in the assay on SW480 colon cancer cells was determined as 3.7%; in the assay with IL-6 in THP-1 cells, 43.3%. For the same compound, the results for the EC50 (with SW480 colon cancer cells; in assay [1]; in the assay on IL-6 in THP-1 cells) were over 10 µM, 2.31 µM and over 10 µM, respectively.

In the case of `CCCCC(=O)Nc1cncc(-c2ccc3[nH]nc(-c4nc5c(-c6ccoc6)cncc5[nH]4)c3n2)c1` [Compound 299, N-(5-(3-(7-(Furan-3-yl)-3H-imidazo[4,5-c]pyridin-2-yl)-1H-pyrazolo[4,3-b]pyridin-5-yl)pyridin-3-yl)pentanamide], the inhibition at 10 µM in the assay on SW480 colon cancer cells stood at 6.7%; in assay [1], 38.1%; with IL-6 in THP-1 cells it was 48.6%. Further, the EC50 (in the assay with SW480 colon cancer cells; in assay [1]; in the assay on IL-6 in THP-1 cells) was over 10 µM in each case.

Take `O=C(Nc1cncc(-c2ccc3[nH]nc(-c4nc5c(-c6ccccc6F)cncc5[nH]4)c3n2)c1)C1CCCC1` [Compound 78, N-(5-(3-(7-(2-Fluorophenyl)-3H-imidazo[4,5-c]pyridin-2-yl)-1H-pyrazolo[4,3-b]pyridin-5-yl)pyridin-3-yl)cyclopentanecarboxamide]: the EC50 with SW480 colon cancer cells is 8.9 µM; in assay [1], 9.08 µM; in the assay with IL-6 in THP-1 cells, over 10 µM. For the same compound, in the assay on IL-6 in THP-1 cells, the inhibition at 10 µM was 40.4%.
